The record followed here is patent US20230304010A1, “COMPOSITIONS AND METHODS FOR TREATING VIRAL INFECTIONS” (priority 2020, published 2023).

Like-named read-outs stand apart in the source and are kept apart here. Ends that are not written are not given here. Some results are limits rather than exact numbers.

For one data set, the system named is SARS-CoV-2 ORF 8 gene. It counts as cell-based.
The test system of data set [1] is SARS-CoV-2 Nucleocapsid gene. It counts as cell-based.
Data set [2] has as its system SARS-CoV-2. The data set is described as follows: siRNA/ADGN-100 complexes on SARS-CoV2 virus infection, Vero E6 cells. It counts as cell-based.
The test system of another data set is Vero-6 cells. The data set can be described thus: Cellular toxicity of siRNA/ADGN-100 complexes on Vero-6 cells, CellTiter-Glo. To be noted: uninfected Vero-6 cells.
Data set [3] concerns the target ACE2:SARS-CoV-2 Spike interaction (UniProt P0DTC2+Q9BYF1). The data set is described as follows: biochemical. The format is binding.
Data set [4] deals with SARS-CoV-2 Spike: ACE2 interaction (UniProt P0DTC2+Q9BYF1). The data set can be described thus: biochemical. The format is binding.
A short description of data set [5]: Nanoparticle formation of peptides with ADGN-106: mean size and polydispersity (Zetasizer). The format is physicochemical. To be noted: 25° C.; for Mean Size (nm): peptide/ADGN-106 complexes; for PI: polydispersity index of peptide/ADGN-106 complexes. An excerpt:
We then tested the ability of the different peptides to form nanoparticle organization in the presence of ADGN-106 or ADGN-100 peptide. […] Peptides were complexed with 5 or 10 molar excess of ADGN-106.

Data set [6] concerns SARS-CoV-2.
The next data set is described as follows: in vitro. The settings on record: uninfected Vero E6 cells.
Another data set has as its system SARS-CoV-2 ORF 3A gene. It counts as cell-based.
In a further data set the test system is Vero E6 cells. The settings on record: uninfected Vero E6 cells; for Cell Viability (%): 0.5 µM.
[7] abbreviates: siRNA complexed with ADGN-100 at molar ratio 1/20, added to Vero-E6 immediately prior to virus infection, read-out: IC50.
The mark [8] stands for this setting: read-out: IC50 against SARS-CoV2 virus infection.

Chain of SARS-CoV-2 Spike: ACE2 interaction (Q9BYF1 18-740, one chain of several): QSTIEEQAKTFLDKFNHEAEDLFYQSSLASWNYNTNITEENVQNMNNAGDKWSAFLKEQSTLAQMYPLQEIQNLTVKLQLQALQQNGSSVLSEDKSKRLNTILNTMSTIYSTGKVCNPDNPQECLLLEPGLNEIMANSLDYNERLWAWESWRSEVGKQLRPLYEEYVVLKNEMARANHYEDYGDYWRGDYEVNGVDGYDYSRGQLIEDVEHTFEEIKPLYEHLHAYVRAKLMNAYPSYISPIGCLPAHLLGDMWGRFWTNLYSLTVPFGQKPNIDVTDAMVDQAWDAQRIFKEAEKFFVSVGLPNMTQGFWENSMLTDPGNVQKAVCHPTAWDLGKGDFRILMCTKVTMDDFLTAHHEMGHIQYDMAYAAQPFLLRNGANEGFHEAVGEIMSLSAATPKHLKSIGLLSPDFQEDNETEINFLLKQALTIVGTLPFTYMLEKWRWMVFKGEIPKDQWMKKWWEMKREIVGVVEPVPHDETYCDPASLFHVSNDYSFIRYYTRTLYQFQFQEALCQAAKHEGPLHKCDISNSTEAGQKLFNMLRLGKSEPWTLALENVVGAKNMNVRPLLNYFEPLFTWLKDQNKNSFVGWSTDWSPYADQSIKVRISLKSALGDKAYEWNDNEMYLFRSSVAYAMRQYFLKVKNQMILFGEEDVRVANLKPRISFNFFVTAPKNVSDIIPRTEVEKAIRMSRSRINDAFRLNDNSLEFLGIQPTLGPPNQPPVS
Chain of ACE2:SARS-CoV-2 Spike interaction (Q9BYF1 18-740, one chain of several): as above

Take GACCCGTGTCCTATTCACTTC [DIVC-82]: the IC50 in the data set with SARS-CoV-2 ORF 8 gene came to 21.7 ± 7 nM.

On to “GACAAGGCGTTCCAATTAACA (chemistry not given here) [DIVC-3]”, for which the IC50 amounted to 11.4 ± 5 nM in data set [1] and 84 ± 14 nM with SARS-CoV-2 [2] (setting [7]). In addition, in the data set with Vero-6 cells, the “TD50 (μM)” value is 452 + 20 μM.

With `CSCC[C@H](NC(=O)[C@H](CC(N)=O)NC(C)=O)C(=O)N[C@H](C(=O)N[C@@H](CCC(N)=O)C(=O)NCC(=O)N[C@@H](Cc1ccccc1)C(=O)N[C@@H](Cc1c[nH]c2ccccc12)C(=O)N[C@@H](CCC(=O)O)C(=O)N[C@@H](CC(N)=O)C(=O)N1CCC[C@H]1C(=O)NCC(=O)NCC(=O)N1CCC[C@H]1C(=O)N[C@H](C(=O)N[C@@H](C)C(=O)N[C@@H](Cc1c[nH]c2ccccc12)C(=O)N[C@@H](CC(=O)O)C(=O)N[C@@H](CC(C)C)C(=O)NCC(=O)N[C@@H](CCCCN)C(=O)NCCCCCC(=O)N[C@@H](CC(C)C)C(=O)N[C@@H](Cc1c[nH]c2ccccc12)C(=O)N[C@@H](CCCNC(=N)N)C(=O)N[C@@H](C)C(=O)N[C@@H](CC(C)C)C(=O)N[C@@H](Cc1c[nH]c2ccccc12)C(=O)N[C@@H](CCCNC(=N)N)C(=O)N[C@@H](CC(C)C)C(=O)N[C@@H](Cc1c[nH]c2ccccc12)C(=O)N[C@@H](CCCNC(=N)N)C(=O)N[C@@H](CO)C(=O)N[C@@H](CC(C)C)C(=O)N[C@@H](Cc1c[nH]c2ccccc12)C(=O)N[C@@H](CCCNC(=N)N)C(=O)N[C@@H](CC(C)C)C(=O)N[C@@H](CC(C)C)C(=O)N[C@@H](Cc1c[nH]c2ccccc12)C(=O)N[C@@H](CCCCN)C(N)=O)[C@@H](C)O)[C@@H](C)O` [Seq38], half-maximal inhibition in [3] (ACE2:SARS-CoV-2 Spike IC50) (IC50) was put at 103 ± 17 nM. Moreover, the IC50 in data set [4] (SARS-CoV-2 Spike:ACE2 IC50) was found to be 214 nM. Further, in data set [5], the “Mean Size (nm)” value worked out at 39 ± 10 nm and the PI amounted to 0.25. For the same compound, the “Residual Infection (%)” value with SARS-CoV-2 [6] is 80%. Moreover, the viability at 0.5 µM in the data set “in vitro” was found to be 68%.

“GAACATGTTACCTTCTTCATC (chemistry not given here) [DIVC-34]”: the IC50 in the data set with SARS-CoV-2 ORF 3A gene is 12.3 ± 1 nM; with SARS-CoV-2 [2] (setting [8]), roughly 1000 nM; with SARS-CoV-2 [2] (setting [7]), 1450 nM. Further, the “TD50 (μM)” value in the data set on Vero-6 cells is 589 + 17 μM.

As for “GTTGATGACCCGTGTCCTATT (chemistry not given here) [DIVC-81]”, in the data set with SARS-CoV-2 ORF 8 gene, the IC50 was greater than 200 nM.

As for “Ac-T*NGVGYQPYK*-Ava-LWRALWRLWRSLWRLLWK-NH2 [Seq22]”, in [4], the “blocked SARS-CoV-2 Spike: ACE2 interaction” value was “blocked” and the “fold less potent than Seq20/Seq21” value was 3.6 fold. For the same compound, in data set [5], the “Mean Size (nm)” value stood at 54.4 ± 8 nm and the PI is listed as 0.24. Also, in the data set with SARS-CoV-2 [6], the “Residual Infection (%)” value was determined as 40%, the “inhibition of viral infection” value is “exhibit inhibition of viral infection” and the “reduction of virus infection” value is on record as 60%. Besides, the IC50 in the data set on SARS-CoV-2 [6] (read-out: D-IC50) was found to be 124 ± 14 nM. Further, the IC50 in the data set on SARS-CoV-2 [6] (read-out: P-IC50) turned out to be 145 ± 25 nM. In addition, in the data set with Vero E6 cells, the “TD50” value was found to be 358 ± 27 µM and the “Cell Viability (%)” value stood at 87%.

The compound GGTGAAATCAAGGATGCTACT [DIVC-31] had an IC50 in the data set on SARS-CoV-2 ORF 3A gene of 18.4 ± 2 nM.

In the data set with SARS-CoV-2 ORF 8 gene, GTGGATGAGGCTGGTTCTAAA [DIVC-83] yielded an IC50 of 15.4 ± 3 nM.

Consider “Ac-G*FQPTNGVK*-Ava-LWRALWRLWRSLWRLLWK-NH2 [Seq21]”, for which, in data set [5], the “Mean Size (nm)” value is reported as 78.2 ± 7 nm and the PI amounted to 0.3. The “Residual Infection (%)” value with SARS-CoV-2 [6] is listed as 79%. The “Cell Viability (%)” value in the data set with Vero E6 cells turned out to be 78%.

Take “GTGTAACTTCTTCAATTGTCA (chemistry not given here) [DIVC-32]”: the IC50 in the data set on SARS-CoV-2 ORF 3A gene was found to be 95.1 ± 7 nM.

Turning to `CC(=O)N[C@@H](Cc1ccc(O)cc1)C(=O)N[C@@H](Cc1ccccc1)C(=O)N1CCC[C@H]1C(=O)N[C@@H](CC(C)C)C(=O)N[C@@H](CCC(N)=O)C(=O)N[C@@H](CO)C(=O)N[C@@H](Cc1ccc(O)cc1)C(=O)NCC(=O)N[C@@H](Cc1ccccc1)C(=O)N[C@@H](CCC(N)=O)C(=O)N1CCC[C@H]1C(=O)N[C@H](C(=O)N[C@@H](CC(N)=O)C(=O)NCC(=O)N[C@H](C(=O)NCC(=O)N[C@@H](Cc1ccc(O)cc1)C(=O)N[C@@H](CCC(N)=O)C(=O)NCCCCC(=O)N[C@@H](CC(C)C)C(=O)N[C@@H](Cc1c[nH]c2ccccc12)C(=O)N[C@@H](CCCNC(=N)N)C(=O)N[C@@H](C)C(=O)N[C@@H](CC(C)C)C(=O)N[C@@H](Cc1c[nH]c2ccccc12)C(=O)N[C@@H](CCCNC(=N)N)C(=O)N[C@@H](CC(C)C)C(=O)N[C@@H](Cc1c[nH]c2ccccc12)C(=O)N[C@@H](CCCNC(=N)N)C(=O)N[C@@H](CO)C(=O)N[C@@H](CC(C)C)C(=O)N[C@@H](Cc1c[nH]c2ccccc12)C(=O)N[C@@H](CCCNC(=N)N)C(=O)N[C@@H](CC(C)C)C(=O)N[C@@H](CC(C)C)C(=O)N[C@@H](Cc1c[nH]c2ccccc12)C(=O)N[C@@H](CCCCN)C(N)=O)C(C)C)[C@@H](C)O` [Seq19], the “blocked ACE2:SARS-CoV-2 Spike interaction” value in [3] is given as “blocked”. This compound also gave an IC50 in data set [3] (ACE2:SARS-CoV-2 Spike IC50) of 349 ± 26 nM. In data set [4], the “blocked SARS-CoV-2 Spike: ACE2 interaction” value was “blocked”. For the same compound, it took 90.6 nM to reach half-maximal inhibition in [4] (SARS-CoV-2 Spike:ACE2 IC50) (IC50). For the same compound, in data set [5], the “Mean Size (nm)” value turned out to be 37.2 ± 5 nm and the PI stood at 0.24. In addition, the “Residual Infection (%)” value with SARS-CoV-2 [6] was 90%. The compound further had a viability at 0.5 µM in the data set “in vitro” of 87%.

“GCCTCTTCTCGTTCCTCATCA (chemistry not given here) [DIVC-8]”: the IC50 worked out at 27.3 nM in data set [1] and 117 nM in the data set on SARS-CoV-2 [2] (setting [7]). For the same compound, the “TD50 (μM)” value with Vero-6 cells is recorded as 548 + 25 μM.

For “Ac-S*YGFQPTNGV*-Ava-LWRALWRLWRSLWRLLWK-NH2 [Seq20]”, in data set [5], the “Mean Size (nm)” value is 68.1 ± 5 nm and the PI was found to be 0.25. In addition, in the data set on SARS-CoV-2 [6], the “Residual Infection (%)” value was 65% and the “inhibition of viral infection” value is “exhibit inhibition of viral infection”. In the data set on Vero E6 cells, the “Cell Viability (%)” value is recorded as 91%.

For “CAAGTCCTATTTCTGAACATG (chemistry not given here) [DIVC-33]”, in the data set with SARS-CoV-2 ORF 3A gene, the midpoint of inhibition, the IC50, lay at 57.2 ± 12 nM.

For “Ac-G*NYNYLYRLFK*-Ava-LWRALWRLWRSLWRLLWK-NH2 [Seq15]”, the IC50 in data set [3] (read-out: ACE2:SARS-CoV-2 Spike IC50) was greater than 10000 nM. Besides, the IC50 in [4] (read-out: SARS-CoV-2 Spike:ACE2 IC50) was greater than 1000 nM. Besides, in data set [5], the “Mean Size (nm)” value is given as 37.5 ± 5 nm and the PI came to 0.23. The “Residual Infection (%)” value in the data set with SARS-CoV-2 [6] worked out at 100%. Further, the “Cell Viability (%)” value in the data set on Vero E6 cells is recorded as 95%.

In the case of “GCGTTGTTCGTTCTATGAAGA (chemistry not given here) [DIVC-84]”, half-maximal inhibition with SARS-CoV-2 ORF 8 gene (IC50) was put at 113 ± 15 nM.

Take “Ac-KTFLDKFNHEAEDLFPGPKWSAFLKEQSTLAQMYG [Seq28]”: in data set [3], the “folds more potent than SBP-1-ADGN-106/ADGN-106 complex” value is given as 6 folds, the “folds more potent than SBP-1 coupled to ADGN-106” value was determined as 6 folds, the “folds more potent than SBP-1 peptide/ADGN-106 complex” value is 40 folds and the “folds more potent than free SBP-1” value was found to be 15 folds. In [4], the “folds more potent than SBP-1-ADGN-106/ADGN-106 complex” value is recorded as 4 folds, the “folds more potent than SBP-1 coupled to ADGN-106” value is on record as 3.5 folds, the “folds more potent than SBP-1 peptide/ADGN-106 complex” value is listed as 35 folds and the “folds more potent than free SBP-1” value is on record as 7 folds. Moreover, in [5], the “Mean Size (nm)” value was found to be 34.6 ± 7 nm and the PI was 0.18. Further, in the data set on SARS-CoV-2 [6], the “Residual Infection (%)” value worked out at 10%, the “fold stronger anti-SARS-CoV-2 activity than hydroxychloroquine sulfate” value is 250 fold, the “increase of potency by pre-incubation with SARS CoV-2 prior infection” value stood at 2 factor and the “inhibition of viral infection” value is listed as “exhibit inhibition of viral infection”. Moreover, in the data set “in vitro”, half-maximal cytotoxicity (CC50) was put at 290000 ± 51000 nM and the viability at 0.5 µM worked out at 78%.

Consider “TGCAGAGTATAAACTTTGTAA (chemistry not given here) [DIVC-35]”, for which the midpoint of inhibition in the data set with SARS-CoV-2 ORF 3A gene, the IC50, lay at 125 ± 11 nM.

As for “KWRSAGWRWRLWRVRSWSR [ADGN-100, reference compound]”, the “TD50 (μM)” value in the data set with Vero-6 cells is on record as 368 + 18 μM.

“GTCCTATTCACTTCTATTCTA (chemistry not given here) [DIVC-85]”: the IC50 in the data set on SARS-CoV-2 ORF 8 gene is 10.8 ± 2 nM; in the data set on SARS-CoV-2 [2] (setting [8]), roughly 1000 nM; with SARS-CoV-2 [2] (setting [7]) it was 1220 nM. Also, the “TD50 (μM)” value with Vero-6 cells is on record as 248 + 35 μM.

Usually IC50 stands for the concentration needed to halve the response being measured. Usually viability stands for the share of living cells, or the viability signal relative to a control. Broadly, the CC50 is the concentration that lowers cell viability or growth by half. A higher CC50 goes with lower toxicity to the cells.
